Test results published in paper PMC9599613 (Biomolecules, 2022).

Tests used:
COX-1 = COX-1 (Homo sapiens, UniProt P23219); test: biochemical; settings: read-out: % COX-1 Inhibition
Protocol: The Cyclooxygenase enzymes (COX-1 and 2) inhibitory potential of our test compounds was determined according to the previously reported procedure. […] The enzyme solutions with a concentration of 0.7–0.8 μg/10 μL (COX-1) and 300 U/mL (COX-2) were prepared. To start the assay, for enzyme activation, 10 µL enzyme solution (kept in a cool temperature of 4 °C for 5 min) and cofactor containing hematin (50 µL, 1 mM), glutathione (0.9 mM) and TMPD in a Tris-buffer (0.1 M) with a pH 8.0 was added. After that, 60 µL of the enzyme solution was added to 20 µL of the test samples of various concentrations and incubated at room temperature for 5 to 10 min. Then, 20 µL of arachidonic acid (30 mM) was added to start the reaction. The mixture was then again incubated for 15 min at 37 °C, and absorbances were measured at 570 nm with UV-visible spectrophotometer. […] The % enzyme inhibitions were calculated by using the previously reported formula.

[1] = ABTS free radical scavenging assay
Protocol: The antioxidant potentials of isolated phytosteroids 1 and 2 were also determined using the ABTS (2,2′-azino-bis(3-ethylbenzothiazoline-6-sulfonic acid)) standard method. […] This created free radicals within the sample. Afterward, the addition of 50% methanol and the ABTS radical cation solution were adjusted to pH 7.4 by dilution with the phosphate buffer (pH 7.4). […] The positive control was ascorbic acid, and the assay was repeated in triplicate. The percent radical scavenging potential of the test compounds was calculated using the standard reported formula.

human recombinant 5-LOX = target: T1, human recombinant 5-LOX (Homo sapiens, UniProt P09917); test: biochemical
T1 sequence (P09917 1-674): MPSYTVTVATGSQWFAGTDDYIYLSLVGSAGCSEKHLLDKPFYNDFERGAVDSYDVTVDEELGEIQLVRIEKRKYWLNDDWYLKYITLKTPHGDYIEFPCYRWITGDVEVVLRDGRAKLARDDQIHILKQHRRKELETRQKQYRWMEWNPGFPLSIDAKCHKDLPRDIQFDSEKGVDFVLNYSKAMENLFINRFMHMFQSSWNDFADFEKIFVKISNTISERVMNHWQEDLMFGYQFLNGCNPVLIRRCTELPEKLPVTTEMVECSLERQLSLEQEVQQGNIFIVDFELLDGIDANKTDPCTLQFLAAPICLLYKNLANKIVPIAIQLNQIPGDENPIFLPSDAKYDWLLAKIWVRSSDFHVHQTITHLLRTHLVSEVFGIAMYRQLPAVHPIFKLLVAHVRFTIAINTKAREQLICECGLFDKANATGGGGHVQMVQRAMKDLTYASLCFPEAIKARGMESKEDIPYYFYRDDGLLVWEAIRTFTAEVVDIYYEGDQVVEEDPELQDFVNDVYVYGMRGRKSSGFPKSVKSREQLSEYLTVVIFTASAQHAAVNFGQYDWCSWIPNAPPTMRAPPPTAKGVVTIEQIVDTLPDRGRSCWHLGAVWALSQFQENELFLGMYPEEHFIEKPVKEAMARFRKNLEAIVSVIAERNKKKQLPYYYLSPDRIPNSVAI
Protocol: The lipoxygenase assay on our test compounds was performed by utilizing human recombinant 5-LOX [65]. […] The enzyme solution with a concentration of 10,000 U/mL was prepared, whereas 80 mM linoleic acid solution was used as a substrate. Solutions were prepared in a phosphate buffer (50 mM) with a pH of 6.3, which was also utilized as the blank. To start, various concentrations of our test samples were dissolved in 0.25 mL of the buffer, to which 0.25 mL enzyme solution was added and incubated at 25 °C for 5 min. Afterward, the substrate solution (0.1 mL) was added to the mixture and shaken well. […] In this assay, the standard drug was montelukast, and using the following formula, the % inhibitions were calculated: % enzyme inhibition=X−X1/X×100 where X = absorbance of the negative control (with no test sample), and X1 = absorbance of the test compound.

[2] = DPPH free radical scavenging assay
Protocol: The antioxidant potentials of isolated compounds (phytosteroids 1 and 2) were determined following the DPPH standard assay. Initially, DPPH (24 mg) was dissolved in methanol (100 mL). Stock solutions of the test compounds were prepared in different dilutions (62.50–1000 μg/mL). From each dilution, 1 mL was mixed with 1 mL of the DPPH solution. The solution mixtures were incubated at room temperature for 0.5 h. Afterward, absorbance was recorded at 517 nm with a UV-visible spectrophotometer. Ascorbic acid was the standard drug, whereas the DPPH solution without the compound was negative control. The percent radical scavenging potential of the test compounds was calculated using the following formula: % DPPH activity=X−X1/X×100 where X = absorbance of the control, and X1 = absorbance of the test compound.

[3] = 1000 μg/mL, listed as compound 2

COX-1, sequence (P23219 24-599): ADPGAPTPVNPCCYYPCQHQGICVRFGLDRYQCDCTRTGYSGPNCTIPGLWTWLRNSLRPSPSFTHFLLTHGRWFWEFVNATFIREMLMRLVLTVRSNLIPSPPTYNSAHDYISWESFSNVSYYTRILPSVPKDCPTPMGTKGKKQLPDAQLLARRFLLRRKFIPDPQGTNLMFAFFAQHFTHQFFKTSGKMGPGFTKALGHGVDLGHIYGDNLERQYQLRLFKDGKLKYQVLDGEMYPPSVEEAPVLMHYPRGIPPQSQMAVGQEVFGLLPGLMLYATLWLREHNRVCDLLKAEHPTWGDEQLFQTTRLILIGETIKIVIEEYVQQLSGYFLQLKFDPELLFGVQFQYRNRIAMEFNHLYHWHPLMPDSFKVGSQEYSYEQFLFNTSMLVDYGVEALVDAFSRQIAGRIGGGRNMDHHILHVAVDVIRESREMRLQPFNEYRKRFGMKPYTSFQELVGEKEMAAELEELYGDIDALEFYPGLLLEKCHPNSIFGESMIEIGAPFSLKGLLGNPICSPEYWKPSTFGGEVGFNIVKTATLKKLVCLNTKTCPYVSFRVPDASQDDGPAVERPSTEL

CCC(CCC(C)C1CCC2C3CCC4=CC(=O)CCC4(C)C3CCC12C)C(C)C (stereo not shown) [Compound 2, 17-(5-ethyl-6-methylheptan-2-yl)-10,13-dimethyl-1,2,6,7,8,9,10,11,12,13,14,15,16,17-tetradecahydro-3H-cyclopenta[a]phenanthren-3-one]
inhibition at 62.5 µg/mL (COX-1): 32.5 ± 0.65% | inhibition at 125 µg/mL (COX-1): 37.7 ± 0.45% | inhibition at 250 µg/mL (COX-1): 44.86 ± 0.02% | inhibition at 500 µg/mL (COX-1): 51.67 ± 0.11% | inhibition at 1000 µg/mL (COX-1): 57.6 ± 1.18% | ABTS IC50 [1]: 185.83 µg/mL | Percent ABTS Activity (mean ± SEM) ([1]; 62.5 μg/mL): 41.34 ± 1.01 % | Percent ABTS Activity (mean ± SEM) ([1]; 125 μg/mL): 46.73 ± 0.78 % | Percent ABTS Activity (mean ± SEM) ([1]; 250 μg/mL): 51.37 ± 1.65 % | Percent ABTS Activity (mean ± SEM) ([1]; 500 μg/mL): 57.85 ± 0.97 % | Percent ABTS Activity (mean ± SEM) ([1]; 1000 μg/mL): 65.17 ± 0.72 % | Percent ABTS Activity (mean ± SEM) [1, 3]: 65.17 ± 0.72% | IC50 (human recombinant 5-LOX; read-out: 5-LOX IC50 (converted)): 21.1 µM | inhibition at 62.5 µg/mL (human recombinant 5-LOX; read-out: % 5-LOX Inhibition): 63.47 ± 0.56% | inhibition at 125 µg/mL (human recombinant 5-LOX; read-out: % 5-LOX Inhibition): 67.74 ± 0.61% | inhibition at 250 µg/mL (human recombinant 5-LOX; read-out: % 5-LOX Inhibition): 73.67 ± 0.61% | inhibition at 500 µg/mL (human recombinant 5-LOX; read-out: % 5-LOX Inhibition): 78.76 ± 0.58% | inhibition at 1000 µg/mL (human recombinant 5-LOX; read-out: % 5-LOX Inhibition): 85 ± 0.3% | DPPH IC50 [2]: 218.83 µg/mL | Percent DPPH Activity (mean ± SEM) ([2]; 62.5 μg/mL): 33.00 ± 1.15 % | Percent DPPH Activity (mean ± SEM) ([2]; 125 μg/mL): 42.67 ± 0.89 % | Percent DPPH Activity (mean ± SEM) ([2]; 250 μg/mL): 49.00 ± 0.58 % | Percent DPPH Activity (mean ± SEM) ([2]; 500 μg/mL): 63.03 ± 0.23 % | Percent DPPH Activity (mean ± SEM) ([2]; 1000 μg/mL): 71.33 ± 0.49 % | Percent DPPH Activity (mean ± SEM) [2, 3]: 71.33 ± 0.49%
